In the supplement of paper PMC10307832:

Legend:
Experiment in all cases: relative viability (nuclei count vs DMSO), 5 days (fraction); higher = more cells survive
[1] = compound: COc1ncc(-c2ccc3nccc(-c4ccnnc4)c3c2)cc1NS(=O)(=O)c1ccc(F)cc1F [Omipalisib] + CC(=O)Nc1cccc(-n2c(=O)n(C3CC3)c(=O)c3c(Nc4ccc(I)cc4F)n(C)c(=O)c(C)c32)c1 [Trametinib] (partner 0.02 µM)
Procedure, shortened: (§1)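 Values are medians from duplicate plates. Each reflects relative viability, defined as the nuclei count of treated wells over that of vehicle wells. Lung cancer cell lines in 1536-well plates were pin-tool dosed one day after seeding with one drug alone or with a fixed anchor-drug dose plus five library-drug doses (not always all listed) in √10 steps, then fixed, stained and imaged at 4× after 5 days.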

[2] = compound: COc1ncc(-c2ccc3nccc(-c4ccnnc4)c3c2)cc1NS(=O)(=O)c1ccc(F)cc1F [Omipalisib] + CC(C)C[C@H](NC(=O)[C@H](Cc1ccccc1)NC(=O)c1cnccn1)B(O)O [Bortezomib] (partner 0.002 µM)
Procedure, shortened: as §1

[3] = compound: COc1ncc(-c2ccc3nccc(-c4ccnnc4)c3c2)cc1NS(=O)(=O)c1ccc(F)cc1F [Omipalisib] + Cc1cc(Nc2cc(N3CCN(C)CC3)nc(Sc3ccc(NC(=O)C4CC4)cc3)n2)n[nH]1 [Tozasertib] (partner 0.1 µM)
Procedure, shortened: as §1

Cell Line	relative viability ([1]; first compound 0.0003 µM)	relative viability ([1]; first compound 0.003 µM)	relative viability ([1]; first compound 0.03 µM)	relative viability ([2]; first compound 0.0003 µM)	relative viability ([2]; first compound 0.003 µM)	relative viability ([2]; first compound 0.03 µM)	relative viability ([3]; first compound 0.0003 µM)	relative viability ([3]; first compound 0.003 µM)	relative viability ([3]; first compound 0.03 µM)
LC-2-ad	0.86	0.754	0.605	1.11	0.978	0.888	0.349	0.401	0.289
BEN	0.828	0.671	0.602	0.773	0.527	0.46	0.43	0.426	0.457
NCI-H1944	0.355	0.246	0.197				0.237	0.217	0.192
HCC-827	0.472	0.37	0.202	1.06	1.17	0.828	0.453	0.365	0.187
HCC-44	0.983	0.921	0.468	0.874	0.694	0.513	1.03	0.953	0.234
ChaGo-K-1	0.818	0.747	0.666	1.06	0.993	1.04	0.242	0.202	0.167
NCI-H647	0.341	0.278	0.15	1.05	0.739	0.462	0.33	0.158	0.0783
HOP-62	0.372	0.248	0.198	0.803	0.617	0.625	0.399	0.356	0.3
NCI-H1666	0.872	0.592	0.61	0.749	0.473	0.333	0.605	0.524	0.552
SW 900	0.625	0.915	0.396				0.556	0.562	0.423
PC-3 [JPC-3]	0.738	0.664	0.439	0.788	0.888	0.909	1.01	0.856	0.625
NCI-H661	0.605	0.454	0.409	0.69	0.595	0.314	0.366	0.388	0.37
NCI-H2085	0.456	0.255	0.257	0.953	0.98	0.517	0.905	0.693	0.361
NCI-H2126	0.487	0.397	0.327	1.06	0.895	0.734	0.712	0.612	0.353
NCI-H460	0.0973	0.0781	0.0544	1.07	0.824	0.109	0.476	0.393	0.0957
NCI-H596	0.899	0.494	0.299	1.04	0.691	0.386	0.824	0.598	0.287
LK-2	0.595	0.4	0.201				0.17	0.166	0.183
UMC-11	0.612	0.359	0.36	0.678	0.556	0.643	0.217	0.209	0.22

Cell Line	relative viability ([1]; first compound 0.0003 µM)	relative viability ([1]; first compound 0.003 µM)	relative viability ([1]; first compound 0.03 µM)	relative viability ([2]; first compound 0.0003 µM)	relative viability ([2]; first compound 0.003 µM)	relative viability ([2]; first compound 0.03 µM)	relative viability ([3]; first compound 0.0003 µM)	relative viability ([3]; first compound 0.003 µM)	relative viability ([3]; first compound 0.03 µM)
RERF-LC-KJ	0.769	0.635	0.413	1.1	0.795	0.664	0.463	0.525	0.382
HCC-78	0.596	0.558	0.275	0.338	0.32	0.252	0.327	0.328	0.21
NCI-H1755	0.736	0.695	0.356	0.924	0.886	0.708	0.62	0.497	0.42
HCC-366	0.245	0.152	0.0615	0.918	0.707	0.168	0.113	0.0977	0.0346
NCI-H2405	0.486	0.37	0.271	0.895	0.909	0.578	0.76	0.648	0.359
COR-L 105	0.469	0.423	0.414	0.89	0.656	0.411	0.356	0.359	0.316
NCI-H1395	1.05	0.83	0.615				0.743	0.764	0.506
NCI-H1915	0.273	0.192	0.201	1.02	0.978	0.97	0.44	0.395	0.421
ABC-1				0.324	0.299	0.246	0.161	0.189	0.213
NCI-H1650	0.438	0.633	0.512	0.197	0.184	0.2	0.401	0.375	0.312
PC-14	0.807	0.682	0.243	0.822	0.991	0.646	0.672	0.674	0.411
NCI-H358	0.136	0.115	0.107				0.126	0.108	0.0977
EPLC-272H	0.275	0.256	0.14	1.08	0.732	0.611	0.254	0.186	0.165
HCC-15	0.32	0.207	0.165	0.988	0.848	0.813	0.373	0.38	0.237
NCI-H1993	0.423	0.584	0.509	0.894	0.699	0.542	0.575	0.5	0.499
NCI-H2170	0.801	0.545	0.303				0.607	0.482	0.354
NCI-H23	0.353	0.244	0.152	0.877	0.684	0.306	0.342	0.295	0.265
SK-LU-1	0.411	0.36	0.253	1.1	0.724	0.511	0.339	0.301	0.237
